Molecules are shown by their SMILES. Activity calls are given as the source filed them.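 Rule for the calls: active = compound whose fitted luminescence drop, meaning cytotoxicity, reaches half effect at most twice its top valid tested dose; inconclusive = flat curve with a moderate drop, or an unreliable fit; inactive = rise instead of drop, flat response, or weaker potency.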

As a reminder, the AC50 is the midpoint of the concentration-response curve, whichever way the signal moves.

Test system in one experiment: not listed separately
Description: NIH/3T3 fibroblast cytotoxicity, dose response, cytotoxicity control for T. cruzi growth inhibitor project, cell-based, cherry-pick samples, set 2 (AID 651817). The settings on record: NIH/3T3 viability, ATP luminescence (CellTiter-Glo), 90 h; at 19.5 µM (top of the series). Background: In ATP-based viability assays light output follows the ATP content of the culture.
Consider `C[C@@H]1CN([C@@H](C)CO)C(=O)c2cccc(NC(=O)NC3CCCCC3)c2O[C@@H]1CN(C)S(=O)(=O)c1ccc(F)cc1`, for which the activity change, negative = cytotoxicity was 21.4% (inactive).
In the case of `C[C@@H]1CN([C@H](C)CO)C(=O)c2cccc(NC(=O)c3nc4ccccc4s3)c2O[C@H]1CN(C)S(=O)(=O)c1ccc(Cl)cc1`, the activity change, negative = cytotoxicity was -10.1% (inactive).
Same read-out and setting: the result for `C[C@@H]1CN([C@H](C)CO)C(=O)c2cccc(NC(=O)c3nc4ccccc4s3)c2O[C@@H]1CN(C)S(=O)(=O)c1ccccc1` reads 35.6% (inactive); that for `Cc1ccc(S(=O)(=O)Nc2ccc3c(c2)CC(=O)N([C@H](C)CO)C[C@H](C)[C@@H](CN(C)S(=O)(=O)c2ccc(Cl)cc2)O3)cc1`, -14.6% (inactive).
On the same count and under the same terms, the result for `C[C@@H]1CN([C@@H](C)CO)C(=O)c2cccc(NC(=O)NC3CCCCC3)c2O[C@H]1CN(C)S(=O)(=O)c1ccc(F)cc1` reads 12.1% (inactive); that for `C[C@H]1CN([C@@H](C)CO)C(=O)c2cccc(NC(=O)c3ccncc3)c2O[C@H]1CN(C)CC1CCCCC1`, 36.4% (inactive).
The same measure, in the same setting: then `C[C@@H]1CN([C@@H](C)CO)C(=O)c2cccc(NC(=O)c3ccncc3)c2O[C@@H]1CN(C)Cc1ccc(-c2ccccc2)cc1`, with 19.3% (inactive).
As to `C[C@H]1CN([C@@H](C)CO)C(=O)c2cccc(NC(=O)c3ccncc3)c2O[C@@H]1CN(C)Cc1ccc2c(c1)OCO2`, the activity change, negative = cytotoxicity is -3.23% (inactive).
The same measure, in the same setting: the result for `Cc1ccc(S(=O)(=O)N(C)C[C@@H]2Oc3ccc(NS(=O)(=O)c4ccc(Cl)cc4)cc3CC(=O)N([C@@H](C)CO)C[C@H]2C)cc1` reads -61.2% (inactive).
With `C[C@@H]1CN([C@H](C)CO)C(=O)c2cccc(NC(=O)c3ccncc3)c2O[C@@H]1CN(C)Cc1ccc(Cl)c(Cl)c1`, the activity change, negative = cytotoxicity was -9.65% (inactive).
For `C[C@@H]1CN([C@@H](C)CO)C(=O)c2cccc(NC(=O)c3ccncc3)c2O[C@H]1CN(C)CC1CC1`, the activity change, negative = cytotoxicity is -16.5% (inactive).
Turning to `C[C@@H]1CN([C@@H](C)CO)C(=O)c2cccc(NC(=O)c3nc4ccccc4s3)c2O[C@@H]1CN(C)S(=O)(=O)c1ccccc1`, the activity change, negative = cytotoxicity was -7.14% (inactive).
Same read-out and setting: the result for `COc1ccc(CN(C)C[C@@H]2Oc3c(NC(=O)c4ccncc4)cccc3C(=O)N([C@@H](C)CO)C[C@H]2C)cc1` reads -18.8% (inactive); that for `C[C@@H]1CN([C@@H](C)CO)C(=O)c2cccc(NC(=O)c3ccncc3)c2O[C@H]1CN(C)CC1CCCCC1`, -8.6% (inactive).
Consider `Cc1noc(C)c1NC(=O)Nc1cccc2c1O[C@H](CN(C)S(C)(=O)=O)[C@@H](C)CN([C@@H](C)CO)C2=O`, for which the activity change, negative = cytotoxicity was -18.2% (inactive).
The same measure, in the same setting: the result for `C[C@@H]1CN([C@@H](C)CO)C(=O)c2cccc(NC(=O)c3ccncc3)c2O[C@@H]1CN(C)CC1CCCCC1` reads 15.4% (inactive).
The same measure, in the same setting: the result for `C[C@H]1CN([C@@H](C)CO)C(=O)c2cccc(NC(=O)c3ccncc3)c2O[C@@H]1CN(C)Cc1ccc(Oc2ccccc2)cc1` reads -16.8% (inactive); that for `C[C@H](CO)N1C[C@H](C)[C@H](CN(C)Cc2ccc(Oc3ccccc3)cc2)Oc2c(NC(=O)c3ccncc3)cccc2C1=O`, -12.3% (inactive).
As for `Cc1noc(C)c1NC(=O)Nc1cccc2c1O[C@@H](CN(C)S(C)(=O)=O)[C@H](C)CN([C@H](C)CO)C2=O`, the activity change, negative = cytotoxicity is -6.79% (inactive).

The experiment is the same for the next values; noted with them: NIH/3T3 viability, ATP luminescence (CellTiter-Glo), 90 h; at 21 µM (top of the series).
Turning to `Cc1ccc(S(=O)(=O)N(C)C[C@H]2Oc3ccc(NS(=O)(=O)c4ccccc4)cc3CC(=O)N([C@@H](C)CO)C[C@H]2C)cc1`, the activity change, negative = cytotoxicity is -30.2% (inactive).
Turning to `Cc1ccc(S(=O)(=O)Nc2ccc3c(c2)CC(=O)N([C@H](C)CO)C[C@@H](C)[C@H](CN(C)Cc2ccccc2)O3)cc1`, the activity change, negative = cytotoxicity was 9.12% (inactive).
`C[C@@H]1CN([C@@H](C)CO)C(=O)c2cccc(NC(=O)c3ccncc3)c2O[C@@H]1CN(C)Cc1ccc2c(c1)OCO2`: the activity change, negative = cytotoxicity is -12.5% (inactive).
Still for that read-out and setting: then `Cc1ccc(S(=O)(=O)N(C)C[C@H]2Oc3c(NC(=O)c4nc5ccccc5s4)cccc3C(=O)N([C@@H](C)CO)C[C@H]2C)cc1`, with -14.2% (inactive).

The subject of another experiment is NIH/3T3 viability, ATP luminescence (CellTiter-Glo), 90 h. The description is as above.
Conditions: not given
As for `C[C@@H]1CN([C@@H](C)CO)C(=O)c2cccc(NC(=O)c3ccncc3)c2O[C@H]1CN(C)Cc1ccc(Oc2ccccc2)cc1`, the AC50 is 20.5 µM.

Values taken from PubChem BioAssay AID651817 (Broad Institute, 2012).
